Source: patent US8133913B2, “Substituted indeno [1,2-b]indole derivatives as novel inhibitors of protein kinase CK2 and their use as tumor therapeutic agents, cytostatics and diagnostic aids” (Heinrich-Heine Universitat Dusseldof, priority 2006, dated 2012)
Where two headings read alike, the source gives them in different places.

Experiments:
Experiment in all cases: Radiometric protein kinase assay (33PanQinase Activity Assay)
Assay type in all cases: biochemical
B-RAF-VE = molecular target: T1, B-RAF-VE (Homo sapiens, UniProt P15056, V600E)
T1 construct: made in house; host or cells: Sf9 insect cells, baculovirus
From the text: (§1) AKTI1, ARK5, Aurora-A, Aurora-B, B-RAF-VE, CDK2/CycA, CDK4/CycD1, CK2-alpha1 (catalytic subunit of CK2), EGF-R, EPHB4, ERBB2, FAK, IGF1-R, SRC, VEGF-R2, VEGF-R3, FLT3, INS-R, MET, PDGFR-beta, PLK1, SAK, TIE2, COT.
(§2) All the protein kinases were expressed in Sf9 insect cells as human recombinant GST fusion proteins or His-tagged proteins by the baculovirus expression system. Kinases were purified by affinity chromatography either by GSH-agarose (Sigma) or Ni—NTH-agarose (Qiagen). The purity of the kinases was tested by SDS-PAGE/silver staining, and the identity of the kinases was verified by Western blot analysis with specific antibodies or mass spectroscopy.
(§3) A radiometric protein kinase assay (33PanQinase® Activity Assay) was used to measure the kinase activity for the 24 protein kinases. The kinase assays were carried out in 96-well FlashPlates™ from Perkin Elmer/NEN (Boston, Mass., USA) in a reaction volume of 50 μl. The reaction mixture was pipetted in 4 steps in the following sequence: • 20 μl of assay buffer • 5 μl of ATP solution (in H2O) • 5 μl of test compound (in 10% DMSO) • 10 μl of substrate/10 μl of enzyme solution (premixed)
(§4) The assays for all the enzymes contained 60 mM HEPES-NaOH, pH 7.5, 3 mM MgCl2, 3 mM MnCl2, 3 μM Na orthovanadate, 1.2 mM DTT, 50 μg/ml PEG20000, 1 μM [γ-^33P]-ATP (about 5×10^5 cpm per well).
(§5) The reaction mixture was incubated at 30° C. for 80 minutes. The reaction was stopped with 50 μl of 2% (v/v) H3PO4. The plates were aspirated and washed twice with 200 μl of 0.9% (w/v) NaCl. The incorporation of ^33Pi was determined using a microtiter plates scintillation counter (Microbeta Trilux, Wallac).

SAK = molecular target: T2, SAK (Homo sapiens, UniProt O00444)
T2 construct: made in house; host or cells: Sf9 insect cells, baculovirus
T2 sequence (O00444 1-970): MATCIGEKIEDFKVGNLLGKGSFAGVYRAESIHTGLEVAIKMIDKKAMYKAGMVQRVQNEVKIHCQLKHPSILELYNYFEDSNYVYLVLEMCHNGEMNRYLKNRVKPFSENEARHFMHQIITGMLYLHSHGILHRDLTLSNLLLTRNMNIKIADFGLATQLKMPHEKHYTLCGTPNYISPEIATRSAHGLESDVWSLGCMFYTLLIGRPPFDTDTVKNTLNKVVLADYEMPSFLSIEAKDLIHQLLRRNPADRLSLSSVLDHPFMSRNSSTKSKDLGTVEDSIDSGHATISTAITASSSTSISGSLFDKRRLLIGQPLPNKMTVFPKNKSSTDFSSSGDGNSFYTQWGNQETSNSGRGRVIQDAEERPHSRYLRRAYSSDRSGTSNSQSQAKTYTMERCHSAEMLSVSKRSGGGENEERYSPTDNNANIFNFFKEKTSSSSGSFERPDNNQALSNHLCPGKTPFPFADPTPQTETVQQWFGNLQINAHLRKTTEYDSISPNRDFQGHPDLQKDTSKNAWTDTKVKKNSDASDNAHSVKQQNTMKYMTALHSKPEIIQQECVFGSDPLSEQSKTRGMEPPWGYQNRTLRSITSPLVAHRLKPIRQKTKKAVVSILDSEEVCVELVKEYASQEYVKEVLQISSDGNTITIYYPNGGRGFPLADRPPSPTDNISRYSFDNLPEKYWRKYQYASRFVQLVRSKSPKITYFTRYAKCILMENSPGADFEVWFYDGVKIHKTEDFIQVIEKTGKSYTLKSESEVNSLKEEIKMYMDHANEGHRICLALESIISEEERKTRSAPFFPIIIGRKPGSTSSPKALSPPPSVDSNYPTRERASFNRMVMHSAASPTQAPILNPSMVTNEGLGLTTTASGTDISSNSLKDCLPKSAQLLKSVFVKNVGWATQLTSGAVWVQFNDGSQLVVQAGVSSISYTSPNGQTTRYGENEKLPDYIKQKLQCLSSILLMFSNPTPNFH
From the text: as §1, §2, §3, §4, §5

INS-R = molecular target: T3, INS-R (Homo sapiens, UniProt P06213)
T3 construct: made in house; host or cells: Sf9 insect cells, baculovirus
From the text: as §1, §2, §3, §4, §5

ARK5 = molecular target: T4, ARK5 (Homo sapiens, UniProt O60285)
T4 construct: made in house; host or cells: Sf9 insect cells, baculovirus
T4 sequence (O60285 1-661): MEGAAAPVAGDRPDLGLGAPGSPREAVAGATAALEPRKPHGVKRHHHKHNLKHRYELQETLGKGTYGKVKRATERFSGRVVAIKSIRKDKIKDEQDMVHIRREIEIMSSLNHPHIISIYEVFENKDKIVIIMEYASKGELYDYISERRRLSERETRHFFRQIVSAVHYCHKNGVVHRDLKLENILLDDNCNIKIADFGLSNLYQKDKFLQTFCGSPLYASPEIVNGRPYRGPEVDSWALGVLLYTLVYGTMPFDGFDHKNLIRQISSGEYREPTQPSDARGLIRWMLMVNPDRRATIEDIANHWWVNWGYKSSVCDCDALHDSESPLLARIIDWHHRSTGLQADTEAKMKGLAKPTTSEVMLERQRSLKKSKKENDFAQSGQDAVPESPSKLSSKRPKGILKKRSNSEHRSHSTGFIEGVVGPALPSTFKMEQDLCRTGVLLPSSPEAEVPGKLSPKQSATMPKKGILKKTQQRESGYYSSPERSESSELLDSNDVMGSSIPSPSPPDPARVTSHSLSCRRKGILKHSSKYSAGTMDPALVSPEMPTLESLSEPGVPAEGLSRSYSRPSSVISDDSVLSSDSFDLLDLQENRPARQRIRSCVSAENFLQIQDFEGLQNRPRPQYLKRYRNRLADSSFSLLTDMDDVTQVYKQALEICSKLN
From the text: as §1, §2, §3, §4, §5

FAK = molecular target: T5, FAK (Homo sapiens, UniProt Q05397)
T5 construct: made in house; host or cells: Sf9 insect cells, baculovirus
From the text: as §1, §2, §3, §4, §5

TIE2 = molecular target: T6, TIE2 (Homo sapiens, UniProt Q02763)
T6 construct: made in house; host or cells: Sf9 insect cells, baculovirus
From the text: as §1, §2, §3, §4, §5

VEGF-R3 = molecular target: T7, VEGF-R3 (Homo sapiens, UniProt P35916)
T7 construct: made in house; host or cells: Sf9 insect cells, baculovirus
From the text: as §1, §2, §3, §4, §5

[1] = 1 μM ATP, read-out: IC50 values [μM] B-RAF-VE
[2] = 1 μM ATP, read-out: IC50 values [μM] SAK
[3] = 1 μM ATP, read-out: IC50 values [μM] INS-R
[4] = 1 μM ATP, read-out: IC50 values [μM] ARK5
[5] = 1 μM ATP, read-out: IC50 values [μM] FAK
[6] = 1 μM ATP, read-out: IC50 values [μM] TIE2
[7] = 1 μM ATP, read-out: IC50 values [μM] VEGF-R3

T7 sequence (P35916 25-1363): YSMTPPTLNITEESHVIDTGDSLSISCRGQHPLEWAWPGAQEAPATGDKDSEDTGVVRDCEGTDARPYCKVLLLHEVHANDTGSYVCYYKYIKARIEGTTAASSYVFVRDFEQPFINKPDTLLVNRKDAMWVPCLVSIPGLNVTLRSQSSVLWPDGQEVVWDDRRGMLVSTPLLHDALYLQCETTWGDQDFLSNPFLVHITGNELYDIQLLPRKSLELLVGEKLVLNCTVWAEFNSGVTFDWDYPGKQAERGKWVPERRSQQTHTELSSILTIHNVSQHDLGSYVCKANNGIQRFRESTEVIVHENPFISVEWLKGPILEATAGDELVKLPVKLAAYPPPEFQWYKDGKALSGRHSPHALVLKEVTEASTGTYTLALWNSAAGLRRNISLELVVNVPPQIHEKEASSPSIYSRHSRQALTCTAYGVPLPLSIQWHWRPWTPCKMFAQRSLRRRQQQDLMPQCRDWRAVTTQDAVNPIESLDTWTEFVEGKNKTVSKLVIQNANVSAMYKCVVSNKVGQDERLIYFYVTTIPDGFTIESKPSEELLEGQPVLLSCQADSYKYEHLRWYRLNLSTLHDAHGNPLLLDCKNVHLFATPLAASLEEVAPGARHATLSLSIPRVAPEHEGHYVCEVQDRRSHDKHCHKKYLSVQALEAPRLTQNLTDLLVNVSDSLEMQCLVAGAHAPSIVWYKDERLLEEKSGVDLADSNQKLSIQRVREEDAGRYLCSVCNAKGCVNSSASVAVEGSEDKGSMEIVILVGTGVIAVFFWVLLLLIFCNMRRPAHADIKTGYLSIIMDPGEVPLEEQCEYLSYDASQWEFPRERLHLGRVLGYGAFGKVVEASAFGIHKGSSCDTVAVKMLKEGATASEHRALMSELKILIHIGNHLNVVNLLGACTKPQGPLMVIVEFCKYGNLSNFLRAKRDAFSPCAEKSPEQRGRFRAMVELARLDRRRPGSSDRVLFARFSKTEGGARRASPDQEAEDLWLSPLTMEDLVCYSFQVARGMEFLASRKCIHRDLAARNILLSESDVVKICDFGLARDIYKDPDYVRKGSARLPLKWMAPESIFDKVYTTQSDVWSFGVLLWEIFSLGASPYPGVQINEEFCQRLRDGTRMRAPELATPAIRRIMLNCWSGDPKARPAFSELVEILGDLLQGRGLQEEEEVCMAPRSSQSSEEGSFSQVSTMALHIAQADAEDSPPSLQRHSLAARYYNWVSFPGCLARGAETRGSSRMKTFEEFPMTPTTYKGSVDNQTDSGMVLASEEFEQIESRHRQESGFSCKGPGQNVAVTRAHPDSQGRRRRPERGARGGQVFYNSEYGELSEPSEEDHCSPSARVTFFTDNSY
T6 sequence (Q02763 23-1124): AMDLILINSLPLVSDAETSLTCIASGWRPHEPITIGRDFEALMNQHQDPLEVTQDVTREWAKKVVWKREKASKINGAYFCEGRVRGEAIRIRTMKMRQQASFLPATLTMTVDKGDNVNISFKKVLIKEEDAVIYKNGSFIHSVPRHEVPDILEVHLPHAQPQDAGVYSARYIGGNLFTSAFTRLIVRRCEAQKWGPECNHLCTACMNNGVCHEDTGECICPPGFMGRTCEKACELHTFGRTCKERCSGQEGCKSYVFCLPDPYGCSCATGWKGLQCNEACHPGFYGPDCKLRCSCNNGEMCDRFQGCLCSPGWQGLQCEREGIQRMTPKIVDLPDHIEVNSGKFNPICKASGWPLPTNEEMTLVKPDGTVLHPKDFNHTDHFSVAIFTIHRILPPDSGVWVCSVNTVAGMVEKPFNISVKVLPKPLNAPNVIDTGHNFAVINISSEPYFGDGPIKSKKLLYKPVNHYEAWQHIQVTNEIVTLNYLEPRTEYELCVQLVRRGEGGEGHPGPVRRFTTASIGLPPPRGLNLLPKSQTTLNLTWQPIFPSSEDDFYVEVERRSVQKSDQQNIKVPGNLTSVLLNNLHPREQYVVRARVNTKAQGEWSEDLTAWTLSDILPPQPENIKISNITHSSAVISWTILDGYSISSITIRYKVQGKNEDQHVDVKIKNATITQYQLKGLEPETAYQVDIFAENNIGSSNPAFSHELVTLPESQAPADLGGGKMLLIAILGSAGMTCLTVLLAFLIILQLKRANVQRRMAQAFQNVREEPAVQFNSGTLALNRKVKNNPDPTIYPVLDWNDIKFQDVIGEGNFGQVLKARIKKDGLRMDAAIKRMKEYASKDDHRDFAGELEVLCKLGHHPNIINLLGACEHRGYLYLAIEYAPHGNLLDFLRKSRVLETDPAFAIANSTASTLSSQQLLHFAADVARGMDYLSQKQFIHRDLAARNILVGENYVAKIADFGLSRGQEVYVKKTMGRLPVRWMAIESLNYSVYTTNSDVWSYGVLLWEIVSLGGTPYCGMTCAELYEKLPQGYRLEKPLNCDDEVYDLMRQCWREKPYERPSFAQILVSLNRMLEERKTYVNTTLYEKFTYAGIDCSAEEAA
T3 sequence (P06213 980-1382 limits assumed): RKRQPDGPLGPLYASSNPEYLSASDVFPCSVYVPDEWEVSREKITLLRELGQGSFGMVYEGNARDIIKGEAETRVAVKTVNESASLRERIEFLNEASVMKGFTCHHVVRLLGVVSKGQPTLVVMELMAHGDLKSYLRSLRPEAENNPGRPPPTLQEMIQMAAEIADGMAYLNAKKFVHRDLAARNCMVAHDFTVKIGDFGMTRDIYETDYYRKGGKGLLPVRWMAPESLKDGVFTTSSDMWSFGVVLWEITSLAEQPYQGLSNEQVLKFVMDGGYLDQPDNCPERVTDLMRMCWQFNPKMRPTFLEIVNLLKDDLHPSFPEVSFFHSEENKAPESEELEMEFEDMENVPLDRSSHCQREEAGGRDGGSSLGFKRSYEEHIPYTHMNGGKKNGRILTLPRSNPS
T5 sequence (Q05397 whole entry): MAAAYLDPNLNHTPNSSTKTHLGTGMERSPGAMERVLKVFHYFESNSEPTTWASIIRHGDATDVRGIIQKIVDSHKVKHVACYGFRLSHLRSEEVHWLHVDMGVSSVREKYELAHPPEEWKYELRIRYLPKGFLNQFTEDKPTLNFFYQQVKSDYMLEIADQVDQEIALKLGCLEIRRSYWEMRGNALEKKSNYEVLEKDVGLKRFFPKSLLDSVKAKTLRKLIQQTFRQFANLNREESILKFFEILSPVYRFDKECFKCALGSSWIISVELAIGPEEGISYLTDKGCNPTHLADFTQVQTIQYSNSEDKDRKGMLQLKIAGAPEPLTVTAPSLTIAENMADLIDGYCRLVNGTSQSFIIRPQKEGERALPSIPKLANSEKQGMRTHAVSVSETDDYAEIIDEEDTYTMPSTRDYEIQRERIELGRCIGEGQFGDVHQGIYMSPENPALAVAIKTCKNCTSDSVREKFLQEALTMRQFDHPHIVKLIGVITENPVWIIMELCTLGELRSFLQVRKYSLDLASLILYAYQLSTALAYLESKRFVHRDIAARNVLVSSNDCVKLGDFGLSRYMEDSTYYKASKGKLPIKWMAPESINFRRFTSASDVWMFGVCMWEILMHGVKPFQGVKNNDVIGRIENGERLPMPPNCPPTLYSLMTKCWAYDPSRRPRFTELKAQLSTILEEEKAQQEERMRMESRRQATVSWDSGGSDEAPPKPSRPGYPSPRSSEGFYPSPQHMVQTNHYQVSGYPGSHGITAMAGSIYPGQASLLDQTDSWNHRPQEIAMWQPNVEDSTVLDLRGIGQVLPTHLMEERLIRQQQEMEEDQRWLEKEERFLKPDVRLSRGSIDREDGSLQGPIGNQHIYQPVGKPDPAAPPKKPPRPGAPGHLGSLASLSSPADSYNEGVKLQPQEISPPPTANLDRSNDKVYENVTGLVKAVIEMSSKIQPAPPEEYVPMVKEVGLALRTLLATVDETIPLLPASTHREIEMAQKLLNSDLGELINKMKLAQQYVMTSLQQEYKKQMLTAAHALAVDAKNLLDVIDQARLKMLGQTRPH
T1 sequence (P15056 whole entry V600E): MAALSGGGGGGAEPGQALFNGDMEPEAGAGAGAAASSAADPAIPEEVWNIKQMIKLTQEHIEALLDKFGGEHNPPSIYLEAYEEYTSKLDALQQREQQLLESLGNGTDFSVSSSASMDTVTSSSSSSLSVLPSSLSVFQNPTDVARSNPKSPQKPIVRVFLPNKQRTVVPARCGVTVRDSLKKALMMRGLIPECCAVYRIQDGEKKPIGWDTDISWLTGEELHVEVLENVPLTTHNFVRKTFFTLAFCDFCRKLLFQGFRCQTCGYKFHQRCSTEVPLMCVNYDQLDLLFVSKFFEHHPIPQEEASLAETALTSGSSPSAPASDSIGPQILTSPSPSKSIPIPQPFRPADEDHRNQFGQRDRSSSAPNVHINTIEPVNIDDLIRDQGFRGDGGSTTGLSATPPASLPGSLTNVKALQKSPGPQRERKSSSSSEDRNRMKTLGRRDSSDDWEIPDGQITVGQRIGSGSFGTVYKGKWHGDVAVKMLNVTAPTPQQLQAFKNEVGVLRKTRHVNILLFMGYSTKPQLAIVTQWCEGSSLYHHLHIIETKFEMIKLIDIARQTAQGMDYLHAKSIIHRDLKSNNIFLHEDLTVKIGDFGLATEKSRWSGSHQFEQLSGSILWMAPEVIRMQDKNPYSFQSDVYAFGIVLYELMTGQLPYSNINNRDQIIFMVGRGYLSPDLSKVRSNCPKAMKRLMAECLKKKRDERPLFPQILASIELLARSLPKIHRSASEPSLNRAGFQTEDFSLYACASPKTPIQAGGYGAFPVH

| SMILES | IC50 (B-RAF-VE) | IC50 (SAK) | IC50 (INS-R) | IC50 (ARK5) | IC50 (FAK) | IC50 (TIE2) | IC50 (VEGF-R3) | IC50 (B-RAF-VE; [1]) | IC50 (SAK; [2]) | IC50 (INS-R; [3]) | IC50 (ARK5; [4]) | IC50 (FAK; [5]) | IC50 (TIE2; [6]) | IC50 (VEGF-R3; [7]) |
| --- | --- | --- | --- | --- | --- | --- | --- | --- | --- | --- | --- | --- | --- | --- |
| CC(C)n1c2c(c3c1-c1ccccc1C3=O)C(=O)CCC2 [Compound 4b, 5-Isopropyl-5,6,7,8-tetrahydroindeno[1,2-b]indole-9,10-dione] | > 10 µM | > 10 µM | > 10 µM | > 10 µM | > 10 µM | > 10 µM | > 10 µM |  |  |  |  |  |  |  |
| CC(C)n1c2c(=O)ccc(=O)c2c2c(=O)c3ccccc3c21 [Compound 6b, 5-Isopropyl-5H-indeno[1,2-b]indole-6,9,10-trione] |  |  |  |  |  |  |  | > 10 µM | 1.7 µM | 1.6 µM | 0.17 µM | > 10 µM | 3.2 µM | 0.96 µM |
| O=c1ccc(=O)c2c1c1c(=O)c3ccccc3c1n2Cc1ccccc1 [Compound 6c, 5-Benzyl 5,6,9,10-tetrahydroindeno[1,2-b]indole-6,9,10-trione] |  |  |  |  |  |  |  | > 10 µM | 3.9 µM | 6.5 µM | 1.3 µM | > 10 µM | 4.7 µM | 7.5 µM |
